Experiment [1] has as its target interaction between PD-1 and PD-L1 (Homo sapiens (Human), UniProt Q9NZQ7). Put plainly: PD1-PDL1 HTRF binding activity test (Cisbio PD-1/PD-L1 binding assay kit). Particulars: read-out: PD1-PDL1 HTRF Binding Activity IC50. As to the method: A. PD1-PDL1 HTRF Binding Activity Test
The effect of compounds and positive compounds of the examples of the present invention on the interaction between PD-1 and PD-L1 was determined by the PD-1/PD-L1 binding assay kit from Cisbio (#64ICP01PEG or 64ICP01PEH). The detailed experimental process was as follows:
1. Pre-diluted compound solution, 4 μL of Tag1-PD-L1 and 4 μL of Tag2-PD1 were added to each well of a 384-well plate;
3. After incubated for 2 hrs at room temperature or overnight at 4° C., plates were read on Envision of Pelkin Elmer; and readings at 665 nm and 620 nm were recorded, and the ratio of the two readings was taken as a reading for each well;
4. The reading of each well after compound treatment was compared with the reading of DMSO treated wells to obtain the percent inhibition of the compound; and
5. IC50 values of compounds and positive compounds of the examples of the present invention were determined by non-linear regression analysis of percent inhibition at different compound concentrations.

Experiment [2] addresses interaction between PD-1 and PD-L1 expressed on cell surfaces (Homo sapiens (Human), UniProt Q9NZQ7). Put plainly: Jurkat reporter gene cellular assay (Jurkat/NF-κB-luc/PD1 cells cocultured with Raji-PD-L1 cells, OKT-3 stimulation). It is filed as cell-based. The note with it: NF-κB-luc reporter activation fold, 6 hrs; read-out: Cell Activity EC50. As to the method:
B. Jurkat Reporter Gene Cellular Assay
The effect of compounds of the examples of the present invention and positive compounds on the interaction between PD-1 and PD-L1 expressed on cell surfaces, and the related influence on T cell functions, were determined by a Jurkat reporter gene cellular assay.
Briefly, the reporter gene plasmid of NF-κB-luc and the plasmid of human PD-1 were transfected into Jurkat cells to establish a stably transfected cell line capable of stably expressing both PD-1 and NF-κB-Luc reporter genes; the expression level of PD-1 on the cell surface was confirmed by flow cytometry: and the expression of the reporter gene was confirmed via the response of the reporter gene stimulated by OKT-3 and Raiji cells.
In addition, the plasmid of human PD-L1 was transfected into Raji cells to obtain a cell line capable of stably expressing PD-L1. Jurkat/NF-κB-luc/PD1 cells and Raji-PD-L1 cells were then cocultured and stimulated with OKT-3. On this basis, the compounds were added, and the enhancement of the signal pathway of T cell activation by the inhibitory effect of the compounds on the interaction between PD-1 and PD-L1 was evaluated by readings of reporter gene responses. The specific experimental process was as follows:
2. 20 μL of Raji-PD-L1 cell suspension was added to each well with 5*10^4 cells for each well, and was incubated in an incubator for 20 min;
3. 20 μL of Jurkat/NF-κb-luc/PD-1 cell suspension was added to each well with 5*10^4 cells for each well, and well mixed, and 6 hrs later, Bright-glo (Promega, E2620) was applied and plates were read on Envision;
4. the reading of each well treated with the compound was compared with the reading of each well treated with DMSO to obtain the activation fold of the compound; and
5. EC50 values of compounds and positive compounds of the examples of the present invention were determined by non-linear regression analysis of activation folds at different compound concentrations.

pEC50, pIC50: −log10 of the molar value.

interaction between PD-1 and PD-L1, sequence (Q9NZQ7 19-238): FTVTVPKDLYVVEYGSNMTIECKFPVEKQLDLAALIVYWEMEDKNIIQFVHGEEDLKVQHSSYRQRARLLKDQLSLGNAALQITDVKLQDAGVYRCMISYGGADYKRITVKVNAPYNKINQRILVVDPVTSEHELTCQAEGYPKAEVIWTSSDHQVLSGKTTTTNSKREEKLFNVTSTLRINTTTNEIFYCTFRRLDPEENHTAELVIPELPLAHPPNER
interaction between PD-1 and PD-L1 expressed on cell surfaces, sequence (Q9NZQ7 19-290): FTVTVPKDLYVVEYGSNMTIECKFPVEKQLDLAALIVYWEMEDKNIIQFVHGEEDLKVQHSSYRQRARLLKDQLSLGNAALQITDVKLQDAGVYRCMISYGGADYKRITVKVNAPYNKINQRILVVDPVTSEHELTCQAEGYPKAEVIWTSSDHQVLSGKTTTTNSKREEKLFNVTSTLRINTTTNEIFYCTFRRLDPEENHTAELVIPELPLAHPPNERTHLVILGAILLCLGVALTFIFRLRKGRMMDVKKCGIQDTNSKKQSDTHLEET

For `COc1cc(C(=O)Nc2cccc(-c3cccc(NC(=O)c4cc(OC)c(CN[C@H]5CCC[C@@H]5O)cn4)c3C)c2C)ncc1CN[C@H]1CCC[C@@H]1O` [Example 44, N,N'-(2,2′-dimethyl-[1,1′-biphenyl]-3,3′-diyl)bis(5-((((1S,2S)-2-hydroxycyclopentyl)amino)methyl)-4-methoxypicolinamide)], the pIC50 in experiment [1] is 9.62. In experiment [2], the negative-log EC50 (pEC50) is 7.26.

As to `COc1cc(C(=O)Nc2cccc(-c3cccc(NC(=O)c4cc(OC)c(CN5CC(O)C5)cn4)c3C)c2C)ncc1CN1CC(O)C1` [Example 45, N,N'-(2,2′-dimethyl-[1,1′-biphenyl]-3,3′-diyl)bis(5-((3-hydroxyazetidin-l-yl)methyl)-4-methoxypicolinamide)], the negative-log IC50 (pIC50) in experiment [1] was 9.66. Moreover, the negative logarithm of the EC50 (pEC50) in experiment [2] is 7.39.

`COc1cc(C(=O)Nc2cccc(-c3cccc(NC(=O)c4cc(OC)c(CN5CC[C@@H](O)C5)cn4)c3C)c2C)ncc1CN1CC[C@@H](O)C1` [Example 47, N,N'-(2,2′-dimethyl-[1,1′-biphenyl]-3,3′-diyl)bis(5-(((R)-3-hydroxypyrrolidin-1-yl)methyl)-4-methoxypicolinamide)]: the negative logarithm of the IC50 (pIC50) in experiment [1] is 9.57. The negative-log EC50 (pEC50) in experiment [2] is 7.34.

As for `COc1cc(C(=O)Nc2cccc(-c3cccc(NC(=O)c4cc(OC)c(CN5CC[C@H](O)C5)cn4)c3C)c2C)ncc1CN1CC[C@H](O)C1` [Example 48, N,N'-(2,2′-dimethyl-[1,1′-biphenyl]-3,3′-diyl)bis(5-(((S)-3-hydroxypyrrolidin-1-yl)methyl)-4-methoxypicolinamide)], the pIC50 in experiment [1] was 9.51. In experiment [2], the pEC50 was 6.99.

In the case of `COc1cc(C(=O)Nc2cccc(-c3cccc(NC(=O)c4cc(OC)c(CN5CCC(O)CC5)cn4)c3C)c2C)ncc1CN1CCC(O)CC1` [Example 49, N,N'-(2,2′-dimethyl-[1,1′-biphenyl]-3,3′-diyl)bis(5-((4-hydroxypiperidin-l-yl)methyl)-4-methoxypicolinamide)], in experiment [1], the pIC50 was 9.48. In addition, in experiment [2], the pEC50 is 6.98.

With `COc1cc(C(=O)Nc2cccc(-c3cccc(NC(=O)c4cc(OC)c(CN5CC[C@@H](OC)C5)cn4)c3C)c2C)ncc1CN1CC[C@@H](OC)C1` [Example 50, N,N'-(2,2′-dimethyl-[1,1′-biphenyl]-3,3′-diyl)bis(4-methoxy-5-(((R)-3-methoxypyrrolidin-1-yl)methyl)picolinamide)], the pIC50 in experiment [1] was 9.48. Also, the negative-log EC50 (pEC50) in experiment [2] is 6.64.

`COc1cc(C(=O)Nc2cccc(-c3cccc(NC(=O)c4cc(OC)c(CN5CC(OC)C5)cn4)c3C)c2C)ncc1CN1CC(OC)C1` [Example 51, N,N'-(2,2′-dimethyl-[1,1′-biphenyl]-3,3′-diyl)bis(4-methoxy-5-((3-methoxyazetidin-1-yl)methyl)picolinamide)]: the pIC50 in experiment [1] is 9.66. Also, in experiment [2], the negative logarithm of the EC50 (pEC50) was 6.54.

Regarding `COc1cc(C(=O)Nc2cccc(-c3cccc(NC(=O)c4cc(OC)c(CN5CC(C)(OC)C5)cn4)c3C)c2C)ncc1CN1CC(C)(OC)C1` [Example 52, N,N'-(2,2′-dimethyl-[1,1′-biphenyl]-3,3′-diyl)bis(4-methoxy-5-((3-methoxy-3-methylazetidin-1-yl)methyl)picolinamide)], the pIC50 in experiment [1] is 9.40. Besides, in experiment [2], the negative logarithm of the EC50 (pEC50) is 6.29.

For `COc1cc(C(=O)Nc2cccc(-c3cccc(NC(=O)c4cc(OC)c(CN[C@H]5C[C@@H](O)C5)cn4)c3C)c2C)ncc1CN[C@H]1C[C@@H](O)C1` [Example 53, N,N'-(2,2′-dimethyl-[1,1′-biphenyl]-3,3′-diyl)bis(5-((((1s,3s)-3-hydroxycyclobutyl)amino)methyl)-4-methoxypicolinamide)], the negative-log IC50 (pIC50) in experiment [1] was 9.82. In addition, the negative-log EC50 (pEC50) in experiment [2] was 7.28.

Take `COc1cc(C(=O)Nc2cccc(-c3cccc(NC(=O)c4cc(OC)c(CNC5COC5)cn4)c3C)c2C)ncc1CNC1COC1` [Example 54, N,N'-(2,2′-dimethyl-[1,1′-biphenyl]-3,3′-diyl)bis(4-methoxy-5-((oxetan-3-ylamino)methyl)picolinamide)]: the negative logarithm of the IC50 (pIC50) in experiment [1] is 9.68. Also, the pEC50 in experiment [2] was 5.32.

As for `COc1cc(C(=O)Nc2cccc(-c3cccc(NC(=O)c4cc(OC)c(CN[C@H]5CCOC5)cn4)c3C)c2C)ncc1CN[C@H]1CCOC1` [Example 55, N,N'-(2,2′-dimethyl-[1,1′-biphenyl]-3,3′-diyl)bis(4-methoxy-5-((((S)-tetrahydrofuran-3-yl)amino)methyl)picolinamide)], the pIC50 in experiment [1] is 9.40. The negative-log EC50 (pEC50) in experiment [2] was 7.09.

Regarding `COc1cc(C(=O)Nc2cccc(-c3cccc(NC(=O)c4cc(OC)c(CN[C@@H]5CCOC5)cn4)c3C)c2C)ncc1CN[C@@H]1CCOC1` [Example 56, N,N'-(2,2′-dimethyl-[1,1′-biphenyl]-3,3′-diyl)bis(4-methoxy-5-((((R)-tetrahydrofuran-3-yl)amino)methyl)picolinamide)], the pIC50 in experiment [1] was 9.19. The pEC50 in experiment [2] is 6.76.

As to `COc1cc(C(=O)Nc2cccc(-c3cccc(NC(=O)c4cc(OC)c(CN5CC6(COC6)C5)cn4)c3C)c2C)ncc1CN1CC2(COC2)C1` [Example 58, N,N'-(2,2′-dimethyl-[1,1′-biphenyl]-3,3′-diyl)bis(5-((2-oxa-6-azaspiro[3.3]heptan-6-yl)methyl)-4-methoxypicolinamide)], the pIC50 in experiment [1] was 9.66. Also, in experiment [2], the pEC50 was 6.20.

`COc1cc(C(=O)Nc2cccc(-c3cccc(NC(=O)c4cc(OC)c(CNC[C@@H](O)CC(=O)O)cn4)c3C)c2C)ncc1CNC[C@@H](O)CC(=O)O` [Example 59]: the pIC50 in experiment [1] was 9.51. In experiment [2], the pEC50 was 7.15.

`COc1cc(C(=O)Nc2cccc(-c3cccc(NC(=O)c4cc(OC)c(CN[C@H]5C[C@@H](C(=O)O)C5)cn4)c3C)c2C)ncc1CN[C@H]1C[C@@H](C(=O)O)C1` [Example 60, (1s,1′s,3s,3′s)-3,3′-((((((2,2′-dimethyl-[1,1′-biphenyl]-3,3′-diyl)bis(azanediyl))bis(carbonyl))bis(4-methoxypyridine-6,3-diyl))bis(methylene))bis(azanediyl))bis (cyclobutane-1-carboxylic acid)]: the negative-log IC50 (pIC50) in experiment [1] is 10.47. The negative logarithm of the EC50 (pEC50) in experiment [2] was 6.24.

Turning to `COc1cc(C(=O)Nc2cccc(-c3cccc(NC(=O)c4cc(OC)c(CN5CCC[C@H]5C(=O)O)cn4)c3C)c2C)ncc1CN1CCC[C@H]1C(=O)O` [Example 61, (2′S)-(((((2,2′-dimethyl-[1,1′-biphenyl]-3,3′-diyl)bis(azanediyl))bis(carbonyl))bis(4-methoxypyridine-6,3-diyl))bis(methylene))di-L-proline], the pIC50 in experiment [1] was 9.74. Moreover, the pEC50 in experiment [2] is 6.50.

For the compound `COc1cc(C(=O)Nc2cccc(-c3cccc(NC(=O)c4cc(OC)c(CN5C[C@H](O)C[C@H]5C(=O)O)cn4)c3C)c2C)ncc1CN1C[C@H](O)C[C@H]1C(=O)O` [Example 62, (2S,2′S,4R,4′R)-1,1′-(((((2,2′-dimethyl-[1,1′-biphenyl]-3,3′-diyl)bis(azanediyl))bis(carbonyl))bis (4-methoxypyridine-6,3-diyl))bis (methylene))bis(4-hydroxypyrrolidine-2-carboxylic acid)], the pIC50 in experiment [1] is 9.60. Also, in experiment [2], the pEC50 is 6.19.

Take `COc1cc(C(=O)Nc2cccc(-c3cccc(NC(=O)c4cc(OC)c(CN5CCOC[C@H]5C(=O)O)cn4)c3C)c2C)ncc1CN1CCOC[C@H]1C(=O)O` [Example 63, (3S,3′S)-4,4′(((((2,2′-dimethyl-[1,1′-biphenyl]-3-3′-diyl)bis(azanediyl))bis (carbonyl))bis(4-methoxypyridine-6,3-diyl))bis(methylene))bis(morpholine-3-carboxylic acid)]: the negative logarithm of the IC50 (pIC50) in experiment [1] was 9.60. Moreover, the negative-log EC50 (pEC50) in experiment [2] is 5.34.

Regarding `COC(=O)CNCc1cnc(C(=O)Nc2cccc(-c3cccc(NC(=O)c4cc(OC)c(CNCC(=O)OC)cn4)c3C)c2C)cc1OC` [Example 66], in experiment [1], the negative logarithm of the IC50 (pIC50) is 9.19. In addition, the pEC50 in experiment [2] was 6.16.

Regarding `COc1cc(C(=O)Nc2cccc(-c3cccc(NC(=O)c4cc(OC)c(CNCC(=O)O)cn4)c3C)c2C)ncc1CNCC(=O)O` [Example 67], the pIC50 in experiment [1] was 9.29. The pEC50 in experiment [2] is 6.46.

For `COc1cc(C(=O)Nc2cccc(-c3cccc(NC(=O)c4cc(OC)c(CN[C@H]5CCOC5=O)cn4)c3C)c2C)ncc1CN[C@H]1CCOC1=O` [Example 68], in experiment [1], the negative-log IC50 (pIC50) is 9.51. Moreover, in experiment [2], the pEC50 was 6.58.
